The values below come from US11486825B1, “Devices and methods for analysis of biological matter using plasmon resonance” (THE FLORIDA INTERNATIONAL UNIVERSITY BOARD OF TRUSTEES, priority 2022, dated 2022).

For the experiment, the system named is contracting CMs (cardiomyocytes). Briefly: P-CeG (plasmonic cardio-eukaryography) signal of contracting cardiomyocytes cultured on gold SPR sensor, consecutive drug injections. The class given is cell-based. An excerpt:
The device as shown in FIGS. 1(a) and 1(c) was used for experiments and studies. The device had dimensions of 12 cm×7.5 cm×5 cm and had micro LEDs, LED splitters, micro prisms, micro polarizers, and micro detectors that induced plasmonic waveguides and detected changes in the electrical/mechanical activity of a cell membrane. Cellular function of mechanical and electrical origins was filtered and sorted using software in operable communication with the sensing platform, and was then compared to the physiological parameters of a healthy cell. […] The hinged cap (fluidic module) had heavy-duty gaskets made from PDMS attached thereto. Micropumps and microtubing on the were used to drive the flow of the cell medium from its attached reservoir. The base of the device acted as a Faraday cage for the micro settings of plasmonic induction and detection, as well as related PCB boards and computer interface connectors of the sensing platform. The refraction index of the prisms was […] (each prism was a BK7 prism from a BI2000 device (Biosensing Instruments, AZ). The cell-SPR model discussed herein with reference to FIGS. 2(a)-2(f) was used as the cell-SPR model for experiments.
Empirical P-CeG data was correlated to the mathematical model of charge distribution near CM's cell membrane. FIG. 10(a) illustrates the four phases in a CM's action potential, field potential, and force of contraction profile (top to bottom, respectively) over time. The dashed vertical lines show phases 0, 1, 2, and 3 of the CM's electromechanical activities. […] Values were extracted using equations from the cell-SPR model. […] Arrows from left to right in the bottom graph depict the depolarization amplitude (DA), field potential duration (FPD), and the repolarization amplitude (RA) as the main features of a CM's field potential. These are also elaborated on in FIG. 10(e) and FIG. 10(f).
Feature extraction was performed on a P-CeG signal and its correlated charge profile of contracting CMs. FIGS. 11(a), 11(b), and 11(c) show amplitude, full width at half maximum (FWHM), and inter-beat intervals (IBI), respectively, for a 100-second epoch from the P-CeG signal obtained from 12 CM-cultured gold sensors. The high variability of values across different sensors is due to the selected methodology for cell isolation and non-ideal experimental conditions (room temperature and without CO2). FIGS. 11(d), 11(e), and 11(f) show DA, RA, and FPD of contracting CMs obtained from their charge profile.
Analysis was performed using blebbistatin as the cells to be analyzed. Consecutive injections of 1 micromolar (04), 3 μM, 5 μM, 7 and 9 μM blebbistatin were performed, and the P-CeG signals were recorded and analyzed. […] A decrease of the control sample's amplitude and high variability in the FWHM of data with time indicate decreased cellular functionality due to non-ideal experimental conditions. Average data are reported as mean±std: 1-way ANOVA, p<0.0001, 95% CI.
Analysis was performed using verapamil as the cells to be analyzed. Consecutive injections of 50 nanomolar (nM), 100 nM, 200 nM, and 500 nM verapamil were performed, and the P-CeG signals were recorded and analyzed. […] Average data are reported as mean±std: 1-way ANOVA, p<0.0001, 95% CI. […] Referring to FIGS. 14(k) and 14(l), an increase in FPD and FWHM of the signals is distinctly observable with increasing verapamil concentrations.
Analysis was performed using caffeine as the cells to be analyzed. Consecutive injections of 2 millimolar (mM), 4 mM, 6 mM, and 8 mM caffeine were performed, and the P-CeG signals were recorded and analyzed. […] Average data are reported as mean±std: 1-way ANOVA, p<0.0001, 95% CI.

On to `Cn1c(=O)c2c(ncn2C)n(C)c1=O` [caffeine], for which the “P-CeG signal amplitude (refractive index change)” value (consecutive injections of 2, 4, 6 and 8 mM caffeine vs control, FIGS. 15(a), 15(b), 15(d)) is listed as “presence of detectable signal amplitude”. For the same compound, the “peak amplitudes (normalized refractive angle change)” value (increased caffeine concentrations 2-8 mM, FIG. 15(i)) is reported as “relatively unchanged”. Besides, the FWHM duration entry (increased caffeine concentrations 2-8 mM, FIG. 15(j)) is recorded as “relatively unchanged”. In addition, the “cell signaling rate (action potential per minute, APM)” value (increased caffeine concentrations 2-8 mM, FIG. 15(k)) is reported as “decreases”. For the same compound, the “depolarization amplitude (DA)” value (increasing caffeine concentrations 2-8 mM, FIG. 15(f)) was “no significant difference”. The “repolarization amplitude (RA)” value (increasing caffeine concentrations 2-8 mM, FIG. 15(g)) is listed as “no significant difference”. Further, the “field potential duration (FPD)” value (increasing caffeine concentrations 2-8 mM, FIG. 15(h)) was “slight increase”.
As to `Cc1ccc2c(c1)C(=O)C1(O)CCN(c3ccccc3)C1=N2` (stereo not drawn) [blebbistatin], the “P-CeG signal amplitude (refractive index change)” value (consecutive injections of 1, 3, 5, 7 and 9 μM blebbistatin vs control, FIGS. 13(a), 13(b), 13(d)) is given as “continuous decrease in signal amplitude”. Moreover, the “signal's peak amplitudes (normalized refractive angle change)” value (five concentrations of blebbistatin 1-9 μM, FIG. 13(i)) was “decreased”. Also, the FWHM duration result (five concentrations of blebbistatin 1-9 μM, FIG. 13(j)) is recorded as “higher variability”. The “cell signaling rate (action potential per minute, APM)” value (five concentrations of blebbistatin 1-9 μM, FIG. 13(k)) is recorded as “relatively unchanged”. The “depolarization amplitude (DA)” value (increasing blebbistatin concentrations 1-9 μM, FIG. 13(f)) was “no significant difference”. Moreover, the “repolarization amplitude (RA)” value (increasing blebbistatin concentrations 1-9 μM, FIG. 13(g)) is “no significant difference”. Besides, under “increasing blebbistatin concentrations 1-9 μM, FIG. 13(h)”, the “field potential duration (FPD)” value is listed as “showed a decrease”.
For the compound `COc1ccc(CCN(C)CCCC(C#N)(c2ccc(OC)c(OC)c2)C(C)C)cc1OC` (stereo not drawn) [verapamil], the “P-CeG signal amplitude (refractive index change)” value (consecutive injections of 50, 100, 200 and 500 nM verapamil vs control, FIGS. 14(a), 14(b), 14(d)) is given as “sharp decrease in signal amplitude”. In addition, under “increasing verapamil concentration 50-500 nM, FIG. 14(h)”, the “peak amplitudes (normalized refractive angle change)” value is “decreased”. Besides, for the setting “increasing verapamil concentration 50-500 nM, FIG. 14(i)”, the FWHM duration entry was “slightly increases before it becomes undetectable and is counted as zero”. Also, the “cell signaling rate (action potential per minute, APM)” value (increasing verapamil concentration 50-500 nM, FIG. 14(j)) is given as “decreased”. The “depolarization amplitude (DA)” value (increasing verapamil concentrations 50-500 nM, FIG. 14(e)) was “no significant difference”. Under “increasing verapamil concentrations 50-500 nM, FIG. 14(f)”, the “repolarization amplitude (RA)” value was “no significant difference”. Besides, the “field potential duration (FPD)” value (increasing verapamil concentrations 50-500 nM, FIG. 14(g)) is recorded as “showed an increase”.
